The GI50 is the concentration giving 50% growth inhibition. The MIC is the lowest concentration found to suppress growth.

Converted amounts (≈) assume the structure as drawn. Where two headings read alike, the source gives them in different places. Where only a bound is given, the exact number is not on record here.

The nature of series [1]: In vitro toxicity assay (resazurin), HL-60 cells. It is filed as cell-based, human. As to conditions: human. As to the method:
(§1) Bloodstream forms of Trypanosoma brucei (clone 427-221a) and human myeloid leukaemia HL-60 cells were maintained in Baltz medium supplemented with 16.7% heat-inactivated bovine serum in a humidified atmosphere containing 5% CO2 at 37 °C. Promastigotes of Leishmania major (strain MHOM/IL/81/Friedlin [16]) were cultured in Schneider’s insect medium supplemented with 10% heat-inactivated foetal bovine serum in a humidified atmosphere containing 5% CO2 at 27 °C.
(§2) Toxicity assays were carried out as previously described with some modifications. In brief, cells were seeded in 96-well plates in a final volume of 200 μL of appropriate medium containing various concentrations of test compounds (tenfold dilution from 100 µM to 1 nM) and 1% DMSO. Wells just containing medium and 1% DMSO served as controls. The initial cell densities were 1 × 10^4/mL for T. brucei bloodstream forms, 2.5 × 10^5/mL for L. major promastigotes, and 5 × 10^4/mL for HL-60 cells. After 24 h incubation, 20 µL of a 0.5 mM resazurin solution prepared in PBS was added and the cells were incubated for a further 48 h. Thereafter, the absorbance of wells was read on a BioTek ELx808 microplate reader using a test wavelength of 570 nm and a reference wavelength of 630 nm. The 50% growth inhibition (GI50) value, i.e., the concentration of a compound necessary to reduce the growth rate of cells by 50% compared to the control, was determined by linear interpolation. The minimum inhibitory concentration (MIC) values, i.e. the concentration of a compound at which all trypanosomes and human cells were killed, was determined microscopically.

Series [2] deals with human myeloid leukaemia HL-60 cells. Nature of the series: In vitro toxicity assay (resazurin), HL-60 cells. As to conditions: 72 h; for GI50: 50% growth inhibition, resazurin. It is filed as cell-based. As to the method: as §1, §2
On the technique in general: Resazurin is reduced to fluorescent resorufin, in cell work by metabolically active cells.

Series [3] has as its system intracellular L. major amastigotes in J774 macrophages. Nature of the series: Intra-macrophages amastigote assay. It is filed as cell-based, Leishmania major. As to conditions: for Killing of intracellular amastigotes: 72 h. As to the method:
The intra-macrophages amastigote assay was performed as previously described with some modification. In brief, 1 mL of J774 cells (7 × 10^4) suspended in RPMI supplemented with 10% foetal bovine serum were pipetted into wells of a 24 well plate containing sterile glass coverslips. Subsequently, cells were incubated overnight at 37 °C and 5% CO2 in a humidified incubator. The next day, metacyclic L. major promastigotes (MOI 20:1) were added and the plates incubated for 24 h at 34 °C and 5% CO2 in a humidified incubator. After 24 h incubation, cells were washed 4 times with PBS to remove parasites that had not invaded any macrophage. Then, cells were incubated with compound 1 at the following concentrations: 10, 2.5, 1.25, 0.625 and 0.1 µM. Amphotericin B (0.1 µM) was used as a positive control and no drug treatment as a negative control. After 72 h of drug incubation, cells were gently washed 4 times with PBS and fixed with 4% paraformaldehyde for 30 min. Thereafter, cells were washed once with water and stained with Giemsa for 40 min. Cells on coverslips were then destained using the acetone-xylene protocol as follows: first, pure acetone; second, pure acetone; third, acetone/xylene 9:1; forth, acetone/xylene 7:3; fifth, acetone/xylene 3:7; sixth, pure xylene. Finally, coverslips were mounted on slides with Entellan new mounting medium. Infection index (parasites/cell) were determined by counting approximately 300 cells per coverslips using an Olympus BX50 microscope with a 100 × N.A. 1.35 oil immersion objective.
Fig. 2 Effect of compound 1 on intracellular L. major amastigotes. After infection of J774 macrophages with metacyclic promastigotes of L. major, cells were treated with compound 1 or amphotericin B (AM) or with DMSO alone (DMSO) 24 h post infection. After 72 h incubation, coverslips with cells were washed with PBS, fixed with paraformaldehyde and stained with Giemsa. Subsequently, cells were destained and coverslips mounted, and the infection index determined. Mean values ± SD of three independent experiments run in triplicate are shown

Series [4] relates to promastigotes of Leishmania major (strain MHOM/IL/81/Friedlin). Nature of the series: In vitro toxicity assay (resazurin), L. major promastigotes. As to conditions: 72 h; for GI50: read-out: L. major GI50; for MIC: read-out: L. major MIC. It is filed as cell-based. Here is the method:
as §1, §2

Series [5] has as its system bloodstream forms of Trypanosoma brucei (clone 427-221a). Nature of the series: In vitro toxicity assay (resazurin), T. brucei bloodstream forms. In kind it is cell-based. The conditions noted are these: for GI50: read-out: T. brucei GI50; for MIC: read-out: T. brucei MIC. As to the method:
as §1, §2

Series [6] has as its system immortalised human embryonic kidney cell line HEK239T. Details: method as in PMID 28917086. As to conditions: cited from earlier work.
Series [7] deals with Axenic grown amastigotes of L. donovani. Details: method as in PMID 17253841. The conditions noted are these: cited from earlier work.
The test system of series [8] is bloodstream forms of T. brucei rhodesiense. Details: method as in PMID 17253841. As to conditions: cited from earlier work.
Where [9] appears, read: Leishmania major, promastigotes, 50% growth inhibition, resazurin.
Where [10] appears, read: Leishmania major, promastigotes, determined microscopically.
The mark [11] stands for this setting: HL-60 cells (human myeloid leukaemia), cytotoxicity, 50% growth inhibition, resazurin, 72 h, read-out: HL-60 cells GI50.
Setting [12] is: cytotoxicity, determined microscopically.
Setting [13] is: Trypanosoma brucei, 72 h, bloodstream forms, 50% growth inhibition, resazurin, 72 h.
Where [14] appears, read: Trypanosoma brucei, bloodstream forms, concentration at which all cells were killed, determined microscopically, 72 h.
Where [15] appears, read: cytotoxicity, 50% growth inhibition, resazurin, 72 h, read-out: HL-60 cells GI50.

For the compound `C[C@@H]1[C@H](O)[C@@H](C)/C=C/C=C/C=C/C=C/C=C/C=C/C=C/[C@H](O[C@@H]2O[C@H](C)[C@@H](O)[C@H](N)[C@@H]2O)C[C@@H]2O[C@](O)(C[C@@H](O)C[C@@H](O)[C@H](O)CC[C@@H](O)C[C@@H](O)CC(=O)O[C@H]1C)C[C@H](O)[C@H]2C(=O)O` [Amphotericin B, reference compound], in series [1] (HL-60 cells GI50), the GI50 at 72 h is 50.7 ± 9.3 µM. For the same compound, the “HL-60 cells MIC” value in series [2] (human) was over 100 µM. Further, the “Killing of intracellular amastigotes” value in series [3] (at 0.1 μM, positive control) is reported as “completely destroy”. Further, the GI50 in series [4] (setting [9]) turned out to be 0.036 ± 0.001 µM. Further, the MIC in series [4] (setting [10]) was determined as 0.1 µM (≈ 0.0924 µg/mL).

With `CC1(C)C(=O)C=C[C@]2(C)C3C(=O)C[C@@]4(C)[C@H](c5ccoc5)OC(=O)[C@H]5O[C@]54[C@]3(C)CC[C@@H]12` (stereo partly shown) [Compound 1, kotschyienone A], the GI50 at 72 h in series [1] (setting [11]) lay within 31.5 to 46.2 µM. Besides, the GI50 in series [2] (cytotoxicity) is 31.5 ± 3.7 µM; in series [3] (Leishmania major, J774, same value as 1.51 μM in mass units), 0.66 µg/mL (≈ 1.51 µM); in series [5] (setting [13]), 2 to 3 µM; in series [5] (Trypanosoma brucei, bloodstream forms, same value as 2.48 μM in mass units) it was 1.09 µg/mL; in series [5] (bloodstream forms, 50% growth inhibition, resazurin, 72 h), 2.48 ± 0.12 µM; in series [4] (setting [9]), 2 to 3 µM. In series [4] (promastigotes, 50% growth inhibition, resazurin), the GI50 was 2.86 ± 0.89 µM. Also, the “HL-60 cells MIC” value in series [2] (setting [12]) is 100 µM. The “Killing of intracellular amastigotes” value in series [3] (at 10 μM) is reported as “killed completely”. Besides, the “ED50 (50% effective dose), reduction of parasite burden of infected macrophages” value in series [3] (intracellular amastigotes in J774 macrophages, 72 h drug incubation, infection index) amounted to 1.51 µM. Further, the MIC in series [5] (setting [14]) and in series [4] (setting [10]) was 10 µM (≈ 4.39 µg/mL) in each case. In addition, in series [6], the “cytotoxicity for HEK239T” value is over 200 µg/mL.

For `CC1(C)C(=O)C=C[C@]2(C)C3C(=O)C[C@@]4(C)[C@H](c5ccoc5)OC(=O)[C@H]5O[C@]54[C@]3(C)[C@H](O)C[C@@H]12` (stereo partly shown) [Compound 2, kotschyienone B], the GI50 at 72 h in series [1] (setting [11]) was over 100 µM. The “HL-60 cells MIC” value in series [2] (setting [12]) is over 100 µM. For the same compound, the GI50 in series [5] (setting [13]) was 14.2 ± 2.9 µM; in series [4] (setting [9]) it was 14.9 ± 5.9 µM. Further, the MIC in series [5] (setting [14]) and in series [4] (setting [10]) was 100 µM (≈ 45.5 µg/mL) each time.

With `CC1(C)C(=O)C=C[C@]2(C)C3CC[C@@]4(C)[C@H](c5ccoc5)OC(=O)[C@H]5O[C@]54[C@]3(C)[C@H](O)C[C@@H]12` (stereo partly shown) [Compound 3, 7-deacetylgedunin], the GI50 is about 1 µM in series [7]; 46.2 ± 6.7 µM in series [2] (cytotoxicity); 14.5 ± 3.2 µM in series [5] (Trypanosoma brucei, 72 h); 3.4 µM in series [8]; 11.6 ± 1.6 µM in series [4] (Leishmania major). Also, the GI50 at 72 h in series [1] (setting [15]) was in the range of 31.5 to 46.2 µM. The “HL-60 cells MIC” value in series [2] (setting [12]) worked out at 100 µM. The MIC in series [5] (Trypanosoma brucei, 72 h) was 100 µM (≈ 44.1 µg/mL); in series [4] (Leishmania major) it was 100 µM (≈ 44.1 µg/mL).

Take `CC1(C)C(=O)C=C[C@]2(C)C3CC[C@@]4(C)[C@H](c5ccoc5)OC(=O)[C@H]5O[C@]54[C@]3(C)C(=O)C[C@@H]12` (stereo partly shown) [Compound 4, 7-deacetyl-7-oxogedunin]: the GI50 is about 1 µM in series [7]; 3.18 ± 0.48 µM in series [5] (Trypanosoma brucei, 72 h); 3.4 µM in series [8]; 7.63 ± 2.78 µM in series [4] (Leishmania major). Moreover, the GI50 at 72 h in series [1] (setting [15]) is over 100 µM. Besides, the “HL-60 cells MIC” value in series [2] (setting [12]) is over 100 µM. Besides, the MIC in series [5] (Trypanosoma brucei, 72 h) was over 100 µM; in series [4] (Leishmania major) it was over 100 µM.

As for `C=C1[C@@H]([C@@]2(C)C=CC(=O)C(C)(C)[C@@H]2CC(=O)OC)CC[C@@]2(C)[C@H](c3ccoc3)OC(=O)[C@H]3O[C@]132` [Compound 5, andirobin], in series [1] (setting [11]), the 50% growth inhibitory concentration (GI50) at 72 h is over 100 µM. Moreover, in series [2] (setting [12]), the “HL-60 cells MIC” value is over 100 µM. Also, the values for the GI50 in series [5] (setting [13]) and in series [4] (setting [9]) were 11.5 ± 6.3 µM and over 100 µM, respectively. For the same compound, the MIC in series [5] (setting [14]) and in series [4] (setting [10]) was over 100 µM each time.

In the case of `C=C1[C@@H]2CC[C@@]3(C)[C@H](c4ccoc4)OC(=O)C[C@]13O[C@H]1CC(=O)C(C)(C)[C@H](CC(=O)OC)[C@]12C` [Compound 6, methyl angolensate], in series [1] (setting [15]), the GI50 at 72 h is over 100 µM. Besides, the “HL-60 cells MIC” value in series [2] (setting [12]) was over 100 µM. In series [5] (Trypanosoma brucei, 72 h), the GI50 came out at 6.04 ± 2.25 µM and the MIC is over 100 µM. Besides, in series [4] (Leishmania major), the GI50 is over 100 µM and the MIC was over 100 µM.

Regarding `Cc1ccc(C(=O)Nc2ccc(S(=O)(=O)O)c3cc(S(=O)(=O)O)cc(S(=O)(=O)O)c23)cc1NC(=O)c1cccc(NC(=O)Nc2cccc(C(=O)Nc3cc(C(=O)Nc4ccc(S(=O)(=O)O)c5cc(S(=O)(=O)O)cc(S(=O)(=O)O)c45)ccc3C)c2)c1` [Suramin, reference compound], the GI50 at 72 h in series [1] (HL-60 cells GI50) is over 100 µM. Also, in series [2] (human), the “HL-60 cells MIC” value is over 100 µM. The GI50 in series [5] (setting [13]) was 0.042 ± 0.004 µM. Also, the MIC in series [5] (setting [14]) turned out to be 1 µM (≈ 1.3 µg/mL).

The values above are taken from article PMC7253382, “Trypanocidal and leishmanicidal activity of six limonoids” (Journal of Natural Medicines, 2020).
